What was measured:
[1] = target: D(3) dopamine receptor (Homo sapiens, UniProt P35462); assay: Selectivity interaction (Dopamine D3 receptor assay, human recombinant ) EUB0000877a DRD3
[2] = target: Ribosomal protein S6 kinase alpha-4 (Homo sapiens) (UniProt O75676); assay: Selectivity interaction (KinomeScan (DiscoverX)) EUB0001619a RPS6KA4; details: at 1 µM
[3] = target: Tyrosine-protein kinase CSK (Homo sapiens) (UniProt P41240); assay: Selectivity interaction (KinomeScan (DiscoverX)) EUB0000607a CSK; details: at 10 µM
[4] = target: Tyrosine-protein kinase JAK1 (Homo sapiens, UniProt P23458); assay: Selectivity interaction (ActivX KiNativ screen (kinase selectivity in THP-1 cell lysates)) EUB0000639a JAK1; assay type: subcellular; details: lysate, at 5 µM
[5] = target: Serine/threonine-protein kinase PAK 3 (Homo sapiens) (UniProt O75914); details: at 10 µM
[6] = target: T1, Mitogen-activated protein kinase kinase kinase 19 (Homo sapiens) (UniProt Q56UN5); assay: Selectivity interaction (KinomeScan (DiscoverX)) EUB0000092b MAP3K19; details: at 10 µM
T1 sequence (whole entry): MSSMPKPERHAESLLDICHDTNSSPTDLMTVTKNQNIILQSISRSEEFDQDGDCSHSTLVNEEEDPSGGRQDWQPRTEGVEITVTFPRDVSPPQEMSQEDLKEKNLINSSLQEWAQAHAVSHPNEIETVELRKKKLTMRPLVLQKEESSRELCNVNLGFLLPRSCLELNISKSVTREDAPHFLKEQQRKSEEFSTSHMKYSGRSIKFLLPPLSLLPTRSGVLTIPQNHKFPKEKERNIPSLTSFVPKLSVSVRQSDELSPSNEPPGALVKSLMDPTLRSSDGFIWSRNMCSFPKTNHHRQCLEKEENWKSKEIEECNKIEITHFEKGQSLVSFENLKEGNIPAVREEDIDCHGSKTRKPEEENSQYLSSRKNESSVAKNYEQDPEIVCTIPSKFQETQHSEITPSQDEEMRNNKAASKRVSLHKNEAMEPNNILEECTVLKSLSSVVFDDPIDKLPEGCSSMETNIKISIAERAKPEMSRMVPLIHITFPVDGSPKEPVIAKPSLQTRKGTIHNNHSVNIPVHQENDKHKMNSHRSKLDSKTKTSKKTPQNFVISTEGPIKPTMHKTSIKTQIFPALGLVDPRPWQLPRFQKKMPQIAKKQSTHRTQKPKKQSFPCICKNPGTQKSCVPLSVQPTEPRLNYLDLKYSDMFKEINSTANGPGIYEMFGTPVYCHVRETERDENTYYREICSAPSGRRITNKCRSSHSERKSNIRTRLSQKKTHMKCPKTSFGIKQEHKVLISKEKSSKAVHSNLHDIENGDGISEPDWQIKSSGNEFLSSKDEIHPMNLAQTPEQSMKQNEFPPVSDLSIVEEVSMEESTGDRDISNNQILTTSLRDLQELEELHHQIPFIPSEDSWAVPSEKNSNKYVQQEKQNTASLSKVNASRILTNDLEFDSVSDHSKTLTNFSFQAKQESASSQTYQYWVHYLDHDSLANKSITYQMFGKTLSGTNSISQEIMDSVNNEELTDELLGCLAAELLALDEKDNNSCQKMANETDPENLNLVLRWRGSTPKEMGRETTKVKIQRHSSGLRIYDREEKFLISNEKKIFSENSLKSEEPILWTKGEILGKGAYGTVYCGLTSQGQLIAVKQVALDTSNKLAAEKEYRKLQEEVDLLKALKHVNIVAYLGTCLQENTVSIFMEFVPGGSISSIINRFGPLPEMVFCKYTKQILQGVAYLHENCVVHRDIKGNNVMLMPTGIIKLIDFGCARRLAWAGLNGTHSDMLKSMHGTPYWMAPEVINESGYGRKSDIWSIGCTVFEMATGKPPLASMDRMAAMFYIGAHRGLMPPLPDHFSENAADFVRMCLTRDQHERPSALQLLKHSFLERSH

[7] = target: T2, MAP/microtubule affinity-regulating kinase 4 (Homo sapiens) (UniProt Q96L34); assay: Selectivity interaction (KinomeScan (DiscoverX)) EUB0000092b MARK4; details: at 10 µM
T2 sequence (whole entry): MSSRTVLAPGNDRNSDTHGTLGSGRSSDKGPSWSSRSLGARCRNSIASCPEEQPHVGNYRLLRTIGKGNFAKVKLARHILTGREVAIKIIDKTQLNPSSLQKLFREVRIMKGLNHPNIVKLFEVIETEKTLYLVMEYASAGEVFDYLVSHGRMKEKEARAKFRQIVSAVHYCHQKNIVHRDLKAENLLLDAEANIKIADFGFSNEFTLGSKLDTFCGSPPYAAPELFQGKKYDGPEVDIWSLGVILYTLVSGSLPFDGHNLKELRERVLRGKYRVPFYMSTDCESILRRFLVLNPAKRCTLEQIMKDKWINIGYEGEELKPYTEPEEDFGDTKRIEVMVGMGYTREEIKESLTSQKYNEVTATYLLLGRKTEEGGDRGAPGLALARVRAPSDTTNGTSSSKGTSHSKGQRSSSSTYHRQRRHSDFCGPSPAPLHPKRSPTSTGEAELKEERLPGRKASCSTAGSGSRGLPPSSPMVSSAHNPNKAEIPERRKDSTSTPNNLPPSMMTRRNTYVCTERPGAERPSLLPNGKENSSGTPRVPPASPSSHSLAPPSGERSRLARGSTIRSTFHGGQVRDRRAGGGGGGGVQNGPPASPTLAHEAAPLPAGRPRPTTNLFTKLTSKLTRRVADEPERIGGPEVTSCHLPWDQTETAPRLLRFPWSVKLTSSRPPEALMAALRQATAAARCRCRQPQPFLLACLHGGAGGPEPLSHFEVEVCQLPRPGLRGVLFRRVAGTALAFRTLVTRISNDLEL

[8] = target: T3, Serine/threonine-protein kinase Sgk3 (Homo sapiens) (UniProt Q96BR1); assay: Selectivity interaction (Ambit KINOMEscan and KiNATiv profiling in Jurkat cells) EUB0000090b SGK3; assay type: cell-based; details: at 1 µM
T3 sequence (whole entry): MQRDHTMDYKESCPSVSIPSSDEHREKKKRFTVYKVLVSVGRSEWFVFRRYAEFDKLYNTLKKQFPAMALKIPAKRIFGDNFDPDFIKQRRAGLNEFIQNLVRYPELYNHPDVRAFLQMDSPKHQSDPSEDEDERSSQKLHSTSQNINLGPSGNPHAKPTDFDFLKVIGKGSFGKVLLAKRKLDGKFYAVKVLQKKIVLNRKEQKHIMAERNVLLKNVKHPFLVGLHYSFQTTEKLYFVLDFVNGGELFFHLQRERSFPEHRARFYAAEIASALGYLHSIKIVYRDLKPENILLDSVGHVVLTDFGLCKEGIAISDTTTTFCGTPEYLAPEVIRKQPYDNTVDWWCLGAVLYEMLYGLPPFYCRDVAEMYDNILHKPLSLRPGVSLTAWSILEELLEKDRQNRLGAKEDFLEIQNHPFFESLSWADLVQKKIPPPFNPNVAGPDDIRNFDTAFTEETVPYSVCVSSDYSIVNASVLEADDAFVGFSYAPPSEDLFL

Chain of Tyrosine-protein kinase JAK1 (P23458 whole entry): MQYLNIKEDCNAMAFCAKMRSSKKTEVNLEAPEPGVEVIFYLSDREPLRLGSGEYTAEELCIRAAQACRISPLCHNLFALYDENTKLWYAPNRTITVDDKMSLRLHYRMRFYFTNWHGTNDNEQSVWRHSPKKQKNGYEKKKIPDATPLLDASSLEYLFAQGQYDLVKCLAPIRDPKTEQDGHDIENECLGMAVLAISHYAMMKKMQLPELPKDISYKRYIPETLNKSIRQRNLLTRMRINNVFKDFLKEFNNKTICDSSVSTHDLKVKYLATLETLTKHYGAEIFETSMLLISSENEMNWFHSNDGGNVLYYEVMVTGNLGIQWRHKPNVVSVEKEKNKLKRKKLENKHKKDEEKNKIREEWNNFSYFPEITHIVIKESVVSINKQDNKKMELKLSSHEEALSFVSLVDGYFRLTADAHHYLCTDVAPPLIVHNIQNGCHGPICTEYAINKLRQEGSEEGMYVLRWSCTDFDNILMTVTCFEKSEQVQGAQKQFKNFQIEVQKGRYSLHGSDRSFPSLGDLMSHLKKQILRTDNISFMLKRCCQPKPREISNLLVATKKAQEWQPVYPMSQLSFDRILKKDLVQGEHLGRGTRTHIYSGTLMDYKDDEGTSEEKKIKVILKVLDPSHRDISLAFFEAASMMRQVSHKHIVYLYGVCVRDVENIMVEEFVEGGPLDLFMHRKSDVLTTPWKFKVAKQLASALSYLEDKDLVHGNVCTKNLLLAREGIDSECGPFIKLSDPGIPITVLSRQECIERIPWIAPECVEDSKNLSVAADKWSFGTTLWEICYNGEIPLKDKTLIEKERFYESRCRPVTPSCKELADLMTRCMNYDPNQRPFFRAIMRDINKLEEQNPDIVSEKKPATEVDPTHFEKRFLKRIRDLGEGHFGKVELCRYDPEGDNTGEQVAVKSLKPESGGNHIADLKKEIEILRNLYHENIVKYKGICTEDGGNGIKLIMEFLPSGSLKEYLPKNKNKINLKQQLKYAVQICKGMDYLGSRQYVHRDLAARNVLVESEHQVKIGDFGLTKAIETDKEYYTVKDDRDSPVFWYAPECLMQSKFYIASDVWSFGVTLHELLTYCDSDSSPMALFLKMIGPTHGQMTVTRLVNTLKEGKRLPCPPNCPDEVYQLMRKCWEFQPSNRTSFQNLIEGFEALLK
Chain of Serine/threonine-protein kinase PAK 3 (Homo sapiens) (O75914 whole entry, looked up): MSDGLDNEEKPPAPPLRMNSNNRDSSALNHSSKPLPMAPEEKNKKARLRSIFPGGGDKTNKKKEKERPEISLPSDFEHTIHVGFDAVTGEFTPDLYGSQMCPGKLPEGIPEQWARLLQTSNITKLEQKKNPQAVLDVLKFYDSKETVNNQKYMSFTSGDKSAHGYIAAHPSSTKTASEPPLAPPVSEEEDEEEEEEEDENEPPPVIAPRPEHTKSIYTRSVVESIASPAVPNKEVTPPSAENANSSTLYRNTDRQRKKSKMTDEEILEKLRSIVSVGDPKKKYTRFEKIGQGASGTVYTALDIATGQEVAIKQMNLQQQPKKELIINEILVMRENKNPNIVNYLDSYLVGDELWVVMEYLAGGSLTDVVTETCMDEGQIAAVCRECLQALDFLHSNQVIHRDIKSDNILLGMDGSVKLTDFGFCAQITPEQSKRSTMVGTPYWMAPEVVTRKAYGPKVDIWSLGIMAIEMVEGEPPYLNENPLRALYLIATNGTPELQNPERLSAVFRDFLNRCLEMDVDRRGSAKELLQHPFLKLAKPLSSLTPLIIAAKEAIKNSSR
Chain of Ribosomal protein S6 kinase alpha-4 (Homo sapiens) (O75676 whole entry, looked up): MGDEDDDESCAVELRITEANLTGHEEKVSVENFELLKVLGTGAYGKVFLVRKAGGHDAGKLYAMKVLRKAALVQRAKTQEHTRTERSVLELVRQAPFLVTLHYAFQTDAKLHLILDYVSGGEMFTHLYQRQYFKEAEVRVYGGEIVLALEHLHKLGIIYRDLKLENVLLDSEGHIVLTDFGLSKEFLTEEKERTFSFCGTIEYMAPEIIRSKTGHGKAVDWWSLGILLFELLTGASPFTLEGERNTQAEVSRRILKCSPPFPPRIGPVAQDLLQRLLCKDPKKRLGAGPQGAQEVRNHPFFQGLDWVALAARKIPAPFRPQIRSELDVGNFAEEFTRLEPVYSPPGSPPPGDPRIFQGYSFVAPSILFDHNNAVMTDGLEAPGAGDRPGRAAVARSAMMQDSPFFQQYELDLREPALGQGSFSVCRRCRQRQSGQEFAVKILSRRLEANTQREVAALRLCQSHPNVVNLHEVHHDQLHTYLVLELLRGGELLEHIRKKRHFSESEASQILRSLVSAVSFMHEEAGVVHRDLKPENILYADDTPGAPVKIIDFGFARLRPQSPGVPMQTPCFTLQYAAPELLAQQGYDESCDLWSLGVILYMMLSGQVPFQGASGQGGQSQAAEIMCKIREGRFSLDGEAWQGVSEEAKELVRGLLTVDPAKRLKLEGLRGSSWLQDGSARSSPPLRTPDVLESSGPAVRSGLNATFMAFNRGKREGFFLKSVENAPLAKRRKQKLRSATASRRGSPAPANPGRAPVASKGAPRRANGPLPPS
Chain of Tyrosine-protein kinase CSK (Homo sapiens) (P41240 2-450 limits assumed): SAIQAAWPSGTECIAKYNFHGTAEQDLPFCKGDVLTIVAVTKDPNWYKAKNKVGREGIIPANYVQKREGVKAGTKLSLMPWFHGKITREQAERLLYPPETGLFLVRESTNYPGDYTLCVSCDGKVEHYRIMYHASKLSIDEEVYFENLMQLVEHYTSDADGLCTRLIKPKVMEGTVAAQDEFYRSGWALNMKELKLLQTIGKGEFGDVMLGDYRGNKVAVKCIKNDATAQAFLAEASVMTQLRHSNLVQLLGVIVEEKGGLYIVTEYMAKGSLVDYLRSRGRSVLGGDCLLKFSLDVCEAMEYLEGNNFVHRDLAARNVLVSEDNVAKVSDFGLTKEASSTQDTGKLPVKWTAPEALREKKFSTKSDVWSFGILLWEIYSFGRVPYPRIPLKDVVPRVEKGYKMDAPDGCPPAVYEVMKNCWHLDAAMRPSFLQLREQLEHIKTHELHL
Chain of D(3) dopamine receptor (P35462 whole entry): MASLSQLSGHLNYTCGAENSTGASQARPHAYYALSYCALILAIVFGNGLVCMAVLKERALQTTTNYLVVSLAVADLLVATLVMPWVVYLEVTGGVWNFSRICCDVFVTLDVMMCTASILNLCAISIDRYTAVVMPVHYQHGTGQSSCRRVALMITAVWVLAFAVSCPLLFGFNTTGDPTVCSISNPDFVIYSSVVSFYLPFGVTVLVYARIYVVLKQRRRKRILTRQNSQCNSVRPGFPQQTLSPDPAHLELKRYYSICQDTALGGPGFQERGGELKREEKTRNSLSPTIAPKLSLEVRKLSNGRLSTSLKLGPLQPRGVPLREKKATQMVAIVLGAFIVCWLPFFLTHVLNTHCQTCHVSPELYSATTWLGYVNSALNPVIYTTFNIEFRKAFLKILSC

## CCC(=O)N1CC[C@H](Nc2ncnc3c2CN(c2cnc(OC)c(C(F)(F)F)c2)CC3)C1 [LENIOLISIB]
[1]
  IC50: > 30 µM

## N#Cc1cccc(-c2c[nH]c3ncnc(N4CCOCC4)c23)c1
[2]
  % of control: 71%

## CNC(=O)Nc1ccc(-c2nc(N3CC4CCC(C3)O4)c3cnn(C4CCC5(CC4)OCCO5)c3n2)cc1
[3]
  % of control: 100%

## CC[C@@H]1[C@H](F)C(=O)N[C@@H]1COc1nccc2cc(C(N)=O)c(OC)cc12 [ZIMLOVISERTIB]
[4]
  % of inhibition: -35.3%

## CCN(CC)CCCCNc1ncc2cc(-c3cc(OC)cc(OC)c3)c(NC(=O)NC(C)(C)C)nc2n1
[5]
  % of control: 100%

## CCC(=O)N1CCN(c2ccc(-n3c(=O)ccc4cnc5ccc(-c6cnc7ccccc7c6)cc5c43)cc2C(F)(F)F)CC1
[6]
  % of control: 38%
[7]
  % of control: 100%

## CN(C)C/C=C/C(=O)Nc1ccc(C(=O)N2CCCC(Nc3ncc(Cl)c(-c4c[nH]c5ccccc45)n3)C2)cc1 (stereo not drawn)
[8]
  % of control: 84%

— ChEMBL document CHEMBL5465560, “Selectivity Literature for EUbOPEN Chemogenomic Library” (2024)
